Test results taken from patent EP1149092B1, “4- AND 5-ALKYNYLOXINDOLES AND 4- AND 5-ALKENYLOXINDOLES” (F. HOFFMANN-LA ROCHE AG, priority 1998, dated 2000).

Assays:
IL-6 [1] = experiment: MG-63 Cell-Based Assay, IL-6 release after IL-1β stimulation (ELISA); conditions: Homo sapiens, MG63 cells, IL-1β stimulated, 24 hours with compound, read-out: IC50 (µM) in MG63 Cells IL6
Text: (§1) The MG63 cell line, a human osteosarcoma cell line, was purchased from American Type Culture Collection (ATCC; Rockville, MD) and grown in the medium recommended by ATCC. When stimulated with human IL-1β , MG63 cells release matrix metalloproteinase 3 (MMP-3), an AP-1 dependent inflammatory mediator and IL-6, a NF-κB-dependent mediator. In this assay the ability of a test compound to block MMP-3 expression and not block IL-6 expression is an indication that the compound is a selective inhibitor of the AP-1 transcription pathway.
(§2) On day 1 the cells were plated at 2.5X10^4 cells/well in 96 well plates. After 24 hours, dexamethasone (the assay control) (Sigma, St. Louis, MO) and the test compounds were diluted to appropriate concentrations and added to the MG63 cells. The cells were incubated with the compounds for 24 hours after which the supernatants were removed and analyzed by ELISA.
(§3) In the ELISA, 96 well plates were coated with antibody to MMP-3 or IL-6. Supernatants were added to the coated plates and any antigen (MMP-3 or IL-6) in the supernatant bound to the antibody coated on the plates. The plates were then washed with PBS containing 0.05% Tween 20 (Sigma, St. Louis, MO) and the biotinylated secondary antibody was added. This secondary antibody binds to the already bound antigen creating a "sandwich effect". Plates were washed as described above and horseradish peroxidase (HRP)-streptavidin conjugate (Sigma, St. Louis, MO) was added to the plates. HRP-streptavidin bound to the biotin-antibody conjugate. The plates were washed and TMB substrate (Kirkegaard and Perry Labs, Gaithersburg, MD) was added to the wells. This substrate changes color in the presence of HRP-streptavidin. The intensity of the color (measured at 450 nm) is proportional to the amount of MMP-3 or IL-6 produced by the MG63 cells upon exposure to IL-1β and the test compounds. Optical density values were converted to concentration (pg/ml or Units/ml) based on a standard curve included in the assay. IC50 values for each test compound were determined from the linear regression of a plot of the logarithm of the concentration of compound versus amount of MMP-3 or IL-6 secreted. (The MMP-3 antibodies were prepared in-house using standard hybridoma technology and the IL-6 antibodies were obtained from either Genzyme, Cambridge, MA or Pharmingen, San Diego, CA.).

MMP-3 = experiment: MG-63 Cell-Based Assay, MMP-3 release after IL-1β stimulation (ELISA); conditions: Homo sapiens, MG63 cells, IL-1β stimulated, 24 hours with compound, read-out: IC50 (µM) in MG63 Cells MMP3
Text: as §1, §2, §3

IL-6 [2] = experiment: U937 Cell-Based Assay, IL-6 release after LPS stimulation (ELISA); conditions: Homo sapiens, U-937; U937 cells, PMA then LPS stimulated, 24 hours; read-out: IC50 (µM) in U937 Cells IL6
Experimental: (§4) The U937 cells, a human monocyte/macrophage cell line, was obtained from the ATTC and grown in the recommended medium. These cells when stimulated with lipopolysaccharide (LPS) release TNF, another inflammatory mediator implicated in the JNK pathway (Swantek et al., supra) and IL-6. In this assay the ability of a test compound to block TNF expression is evaluated.
(§5) The assay is very similar to the MG63 cell based assay except for the following modifications. The U937 cells were suspension cells but when stimulated with phorbol myristate acetate (PMA) (Sigma, St. Louis, MO) they become adherent. After PMA stimulation the cells were washed in cell culture medium and plated at 1X10^5 cells/well in 96 well plates. The following day the test compounds and dexamethasone control (Sigma, St. Louis, MO) were added to the cells for 1 hour of preincubation. Then the cells were stimulated with LPS (Sigma, St. Louis, MO). After an additional 24 hours of incubation the supematants were removed and assayed for TNF-α and IL-6 by ELISA. The IL-6 ELISA was run as described previously for the MG63 assay. The TNF ELISA was run using a kit supplied by Genzyme (Cambridge, MA).

rat SAPK (isoform β) = rat SAPK (isoform β) (Rattus norvegicus, UniProt P49187); experiment: SAPK FlashPlate Assay (inhibition of cJun phosphorylation); type: biochemical; conditions: GST-cJun substrate, 30 minutes at 37 °C
Experimental: "IC50" refers to the concentration of a particular 4- or 5-alkynyloxindole or 4-or 5-alkenyloxindole required to inhibit 50% of cJun phosphorylation, which is a measure of inhibition of SAPK activity. IC50 can be measured, inter alia, using the assay described herein in Example 102.
Human JNK is highly homologous to rat SAPK. To measure the inhibitory activity of test compounds, the compounds were tested in the rat SAPK assay.
For the SAPK assay, purified GST-cJun (a chimeric protein containing cJun, a natural substrate of JNK) was coated on 96 well FlashPlates (New England Nuclear, Boston, MA). Purified rat SAPK (isoform β, Kyriakis et al. supra) was preincubated with preparations containing MEKK-1 and MKK4 for 30 minutes at 37 °C in assay buffer containing 25 mM HEPES, pH 7.5, 150 mM NaCl, 20 mM MgCl2, 2 mM DTT, 0.001% Tween 20, 1 µM ATP freshly added. In the preincubation step, MEKK-1 phosphorylates and activates MKK-4, which in tum phosphorylates and activates SAPK. The activated SAPK was then added to the cJun coated FlashPlates along with ^33P-ATP (0.32 µCi per reaction) and test compounds. The plates were incubated for 30 minutes at 37 °C, then washed with PBS, 0.01% Tween 20, and counted in the Topcount scintillation counter (Packard Instrument Co., Downers Grove, IL). Dilutions of compounds were tested in duplicate in each assay. The percent inhibition of cJun phosphorylation (a measure of inhibition of SAPK activity) was determined by the following formula: [formula] where "test compound" refers to the average counts per minute of the test duplicates, "nonspecific" refers to the average counts per minute when no SAPK was added, and "total" refers to the average counts per minute when no compound was added.

TNF = experiment: U937 Cell-Based Assay, TNF release after LPS stimulation (ELISA); conditions: Homo sapiens, U-937; U937 cells, PMA then LPS stimulated, 24 hours
Experimental: as §4, §5

rat SAPK (isoform β), sequence (P49187 whole entry, canonical isoform): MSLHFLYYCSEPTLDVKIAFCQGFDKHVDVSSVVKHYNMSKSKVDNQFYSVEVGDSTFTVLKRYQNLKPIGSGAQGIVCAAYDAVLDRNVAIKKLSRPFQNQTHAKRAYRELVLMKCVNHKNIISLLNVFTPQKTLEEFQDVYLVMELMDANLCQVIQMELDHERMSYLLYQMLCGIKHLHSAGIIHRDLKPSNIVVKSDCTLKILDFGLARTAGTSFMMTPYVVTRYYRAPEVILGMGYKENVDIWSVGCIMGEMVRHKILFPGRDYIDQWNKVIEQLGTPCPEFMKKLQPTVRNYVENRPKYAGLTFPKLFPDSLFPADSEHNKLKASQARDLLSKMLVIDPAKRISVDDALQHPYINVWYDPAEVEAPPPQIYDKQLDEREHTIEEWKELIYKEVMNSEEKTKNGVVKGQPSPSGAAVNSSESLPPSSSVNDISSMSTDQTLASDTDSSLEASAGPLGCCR

| IC50 (IL-6 [1]) [µM] | IC50 (MMP-3) [µM] | IC50 (IL-6 [2]) [µM] | IC50 (rat SAPK (isoform β)) [µM] | IC50 (TNF) [µM] | Structure (SMILES) |
| --- | --- | --- | --- | --- | --- |
| < 20 | < 12.5 | < 20 | < 1 | < 8 | COc1cc[nH]c1/C=C1\C(=O)Nc2cccc(C#CC(O)c3ccsc3)c21 (racemic) [BB, rac-(Z)-1,3-Dihydro-4-[3-hydroxy-3-(thiophen-3-yl)-1-propynyl]-3-[(3-methoxy-1H-pyrrol-2-yl)methylene]-2H-indol-2-one] |
| < 20 | < 12.5 | < 20 | < 1 | < 8 | COc1cc[nH]c1/C=C1\C(=O)Nc2cccc(C#CC(O)c3ccc4c(c3)OCO4)c21 (racemic) [N, rac-(Z)-4-[3-(1,3-benzodioxol-5-yl)-3-hydroxy-1-propynyl]-1,3-dihydro-3-[(3-methoxy-1H-pyrrol-2-yl)methylene]-2H-indol-2-one] |
| < 20 | < 12.5 | < 20 |  | < 8 | COc1cc(C(O)C#Cc2cccc3c2/C(=C/c2[nH]ccc2OC)C(=O)N3)ccc1O (racemic) [O, rac-(Z)-1,3-Dihydro-4-[3-hydroxy-3-(4-hydroxy-3-methoxyphenyl)-1-propynyl]-3-[(3-methoxy-1H-pyrrol-2-yl)methylene]-2H-indol-2-one] |
| < 20 | < 12.5 | 20 | < 1 | < 8 | COc1cc[nH]c1/C=C1\C(=O)Nc2cccc(C#CC(O)c3ccc(N(C)C)cc3)c21 (racemic) [R, rac-(Z)-1,3-Dihydro-4-[3-(4-dimethylaminophenyl)-3-hydroxy-1-propynyl]-3-[(3-methoxy-1H-pyrrol-2-yl)methylene]-2H-indol-2-one] |
